Test results: ChEMBL document CHEMBL6182895, “Synthesis, in vitro and in vivo evaluation, and computational modeling analysis of thioxothiazolidine derivatives as highly potent and selective α-amylase inhibitors” (Eur J Med Chem, 2025)
Activity calls are given as the source filed them. No cut-off for these calls is given here.

Tests used:
Homo sapiens [1] = species on record: Homo sapiens; test: Inhibition of alpha-amylase (unknown origin) using starch as substrate preincubated for 10 mins followed by substrate addition and measured after 10 mins relative to control; set-up: concentration or dose not given beside the values; settings: time 20.0 min
Homo sapiens [2] = species on record: Homo sapiens; test: Inhibition of alpha-glucosidase (unknown origin) using p-NPG as substrate preincubated for 5 mins followed by substrate addition and measured after 30 mins relative to control; set-up: concentration or dose not given beside the values; settings: time 35.0 min
[3] = Inhibition of alpha-amylase (unknown origin); set-up: species or system Homo sapiens
[4] = Inhibition of alpha-amylase (unknown origin) using starch as substrate measured after 30 mins; set-up: species or system Homo sapiens
[5] = Inhibition of porcine pancreatic alpha-amylase using starch as substrate preincubated for 10 mins followed by substrate addition and measured after 5 mins; set-up: species or system Sus scrofa
[6] = Inhibition of porcine pancreatic alpha-amylase using starch as substrate preincubated for 10 mins followed by substrate addition and measured after 30 mins; set-up: species or system Sus scrofa
[7] = Inhibition of alpha-amylase (unknown origin) using starch as substrate preincubated for 10 mins followed by substrate addition and measured after 10 mins; set-up: species or system Homo sapiens
Homo sapiens [8] = species on record: Homo sapiens; test: Mixed type of inhibition of alpha-amylase (unknown origin) assessed as change in Km and Vmax of substrate using starch as substrate and measured after 10 mins by Lineweaver-burk plot analysis
Rattus norvegicus [9] = test: Antidiabetic activity against streptozotocin-induced diabetic Wistar rat model assessed as blood glucose level at 50 mg/kg, po and measured on day 1 (reference value: 324.7 +/-6.24 mg/dl); assay type: functional; settings: time 1 day
Rattus norvegicus [10] = test: Antidiabetic activity against streptozotocin-induced diabetic Wistar rat model assessed as blood glucose level at 50 mg/kg, po and measured on day 7 (reference value: 378.8 +/-6.48 mg/dl); assay type: functional; settings: time 7 day
Rattus norvegicus [11] = test: Antidiabetic activity against streptozotocin-induced diabetic Wistar rat model assessed as blood glucose level at 50 mg/kg, po and measured on day 14 (reference value: 388.3 +/-6.34 mg/dl); assay type: functional; settings: time 14 day
Rattus norvegicus [12] = test: Antidiabetic activity against streptozotocin-induced diabetic Wistar rat model assessed as restoration of metabolic homeostasis by measuring serum urea level at 50 mg/kg, po measured on day 1 to 14 (reference value: 124.68 +/-2.16 mg/dl); assay type: functional; settings: time 1-14 day
Rattus norvegicus [13] = test: Antidiabetic activity against streptozotocin-induced diabetic Wistar rat model assessed as restoration of metabolic homeostasis by measuring serum creatinine level at 50 mg/kg, po measured on day 1 to 14 (reference value: 116.81 +/-9.26 uM); assay type: functional; settings: time 1-14 day
Rattus norvegicus [14] = test: Antidiabetic activity against streptozotocin-induced diabetic Wistar rat model assessed as restoration of metabolic homeostasis by measuring decrease in […] level in serum at 50 mg/kg, po measured on day 1 to 14; assay type: functional, organism-based; settings: time 1-14 day
Rattus norvegicus [15] = test: Antidiabetic activity against streptozotocin-induced diabetic Wistar rat model assessed as restoration of metabolic homeostasis by measuring AST level in serum at 50 mg/kg, po measured on day 1 to 14 (reference value: 133.49 +/-2.52 IU/L); assay type: functional; settings: time 1-14 day
Rattus norvegicus [16] = test: Antidiabetic activity against streptozotocin-induced diabetic Wistar rat model assessed as restoration of metabolic homeostasis by measuring ALT level in serum at 50 mg/kg, po measured on day 1 to 14 (reference value: 35.2 +/-1.58 IU/L); assay type: functional; settings: time 1-14 day
Rattus norvegicus [17] = test: Antidiabetic activity against streptozotocin-induced diabetic Wistar rat model assessed as restoration of metabolic homeostasis by measuring ALP level in serum at 50 mg/kg, po measured on day 1 to 14 (reference value: 195.13 +/-1.08 IU/L); assay type: functional; settings: time 1-14 day
Rattus norvegicus [18] = test: Protection against diabetes-induced organ dysfunction in streptozotocin-induced diabetic Wistar rat model assessed as reduction in liver damage by measuring fewer congestive blood vessels, reduced hepatocyte ballooning with fewer lipid droplets at 50 mg/kg, po and measured on day 14 by Hematoxylin-Eosin staining based analysis; assay type: functional, organism-based; settings: time 14.0 day
Rattus norvegicus [19] = test: Protection against diabetes-induced organ dysfunction in streptozotocin-induced diabetic Wistar rat model assessed as reduction in kidney damage by measuring kidney with less severe retraction and swelling with measurable hemorrhages in renal tubules and glomeruli at 50 mg/kg, po and measured on day 14 by Hematoxylin-Eosin staining based analysis; assay type: functional, organism-based; settings: time 14.0 day
Rattus norvegicus [20] = test: Protection against diabetes-induced organ dysfunction in streptozotocin-induced diabetic Wistar rat model assessed as reduction in pancreas damage by measuring visible improvement in islet structure with noticeable signs of atrophy remained at 50 mg/kg, po and measured on day 14 by Hematoxylin-Eosin staining based analysis; assay type: functional, organism-based; settings: time 14.0 day
Homo sapiens [21] = species on record: Homo sapiens; test: Potency index, ratio of acarbose IC50 to test compound IC50 for inhibition of alpha-amylase (unknown origin) using starch as substrate preincubated for 10 mins followed by substrate addition and measured after 10 mins; settings: time 20.0 min

Structure (SMILES)	inhibition (Homo sapiens [1]) [%]	inhibition (Homo sapiens [2]) [%]	IC50 [7] [µM]	also measured
O=C(CN1C(=O)/C(=C/c2nccs2)SC1=S)Nc1ccc(C(F)(F)F)cc1	34.8	7.83	–	–
C[C@H]1O[C@H](O[C@H]2[C@H](O)[C@@H](O)[C@@H](O[C@H]3[C@H](O)[C@@H](O)C(O)O[C@@H]3CO)O[C@@H]2CO)[C@H](O)[C@@H](O)[C@@H]1N[C@H]1C=C(CO)[C@@H](O)[C@H](O)[C@H]1O (some centres undefined) [ACARBOSE]	81.2	76.4	951	IC50 [3]: 1060 nM; IC50 [4]: 12.5 nM; IC50 [5]: 1560 nM; IC50 [6]: 104 µM; inhibition (Homo sapiens [8]): Active; Activity (Rattus norvegicus [9]): 315.8 mg/dL; Activity (Rattus norvegicus [10]): 170.6 mg/dL; Activity (Rattus norvegicus [11]): 119.7 mg/dL; Activity (Rattus norvegicus [12]): 55.28 mg/dL; Activity (Rattus norvegicus [13]): 80.21 µM; Activity (Rattus norvegicus [14]): Active; Activity (Rattus norvegicus [15]): 48.87 IU/L; Activity (Rattus norvegicus [16]): 12.14 IU/L; Activity (Rattus norvegicus [17]): 145.34 IU/L; Activity (Rattus norvegicus [18]): Active; Activity (Rattus norvegicus [19]): Active; Activity (Rattus norvegicus [20]): Active
O=C1OCc2cc(-c3ccc(C(F)(F)F)cc3)ccc21	–	–	–	IC50 [3]: 85400 nM
CC(=O)N1C(=O)C(Cc2cn(-c3ccc([N+](=O)[O-])cc3[N+](=O)[O-])nc2-c2ccc(O)cc2)SC1=S (centres undefined)	–	–	–	IC50 [6]: 638 µM
COc1ccc(C(=O)NC(=O)NC2CC2)cc1	–	–	–	IC50 [3]: 1570 nM
Cn1ccnc1/C=C1\SC(=S)N(CC(=O)Nc2cccnn2)C1=O	27.4	9.47	–	–
O=C(CN1C(=O)/C(=C/c2nc3ccccc3s2)SC1=S)Nc1c(F)cc(F)cc1Br	40.1	6.16	–	–
O=C(CN1C(=O)/C(=C/c2nc3ccccc3s2)SC1=S)Nc1ccc(C(F)(F)F)cc1	61.7	3.78	4.07	Ratio IC50 (Homo sapiens [21]): 234
O=C(CN1C(=O)/C(=C/c2nccs2)SC1=S)Nc1c(F)cc(Br)cc1Cl	47.1	5.14	45.1	Ratio IC50 (Homo sapiens [21]): 21
O=C(CN1C(=O)/C(=C/c2csc3ccccc23)SC1=S)Nc1ccc(Br)cc1F	14.7	4.31	–	–
CC(C)CNC(=O)CN1C(=O)/C(=C/c2nccs2)SC1=S	30.4	6.43	–	–
Cn1ccnc1/C=C1\SC(=S)N(CC(=O)Nc2c(F)cc(F)cc2Br)C1=O	59.2	6.24	129	–
COc1ccc(C2C(C#N)=C(NC(C)=O)Oc3oc4ccccc4c(=O)c32)cc1 (centres undefined)	–	–	–	IC50 [4]: 2.04 nM
O=C(CN1C(=O)/C(=C/c2nccs2)SC1=S)NC12CC3CC(CC(C3)C1)C2	42.1	5.67	–	–
O=C(CN1C(=O)/C(=C/c2csc3ccccc23)SC1=S)Nc1c(F)cc(F)cc1Br	60.4	6.49	190	–
O=C(CN1C(=O)/C(=C/c2nccs2)SC1=S)Nc1ccc(Br)cc1F	22.6	9.25	–	–
CC(C)CNC(=O)CN1C(=O)/C(=C/c2nc3ccccc3s2)SC1=S	43.2	6.23	–	–
COC(=O)[C@@H]1N[C@@]2(C(=O)Nc3ccc(Br)cc32)[C@@]2(SC(=S)NC2=O)[C@H]1c1ccccc1	–	–	–	IC50 [5]: 1490 nM
O=C(CN1C(=O)/C(=C/c2csc3ccccc23)SC1=S)Nc1ccc(C(F)(F)F)cc1	73.5	4.59	14	Ratio IC50 (Homo sapiens [21]): 68
